This is an account of results in patent US10017535B2, “Amphiphilic compounds with neuroprotective properties” (USTAV ORGANICKE CHEMIE A BIOCHEMIE AV CR, v.v.i., priority 2014, dated 2018).

Like-named read-outs stand apart in the source and are kept apart here.

Assay [1] concerns the target T1, NR1-1a/NR2B NMDA receptor (Rattus norvegicus, UniProt P35439+Q00960).
T1 construct: expressed in transfected cells; host or cells: HEK293 cells (ATCC CRL1573)
As to conditions: 100 μmol·l^−1 pregnanolone sulfate, recombinant NR1/NR2B receptors, n=5, cited from earlier work.

Assay [2] deals with T1, NR1-1a/NR2B NMDA receptor. Description: Patch-clamp inhibition of glutamate-evoked currents at recombinant NMDA receptors in transfected HEK293 cells. The assay is classed as cell-based. As to conditions: calculated from relative steroid-induced inhibition, Hill's coefficient 1.2; read-out: IC50. Put shortly:
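HEK293 cells co-transfected with rat NR1-1a/NR2B plus GFP were whole-cell patch-clamped 16-40 h post-transfection at −60 mV. Currents were evoked by 1 mmol·l^−1 glutamate with 10 μmol·l^−1 glycine in ECS pH 7.3, and steroid was co-applied in DMSO via fast perfusion. IC50 came from relative inhibition.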

Assay [3] concerns NMDA receptors on hipocampal neurones. As to conditions: 100 μmol·l^−1 pregnanolone sulfate, responses to 100 μmol·l^−1 NMDA, n=5; cited from earlier work.

T1 sequence (Q00960 27-1482, other chains not shown): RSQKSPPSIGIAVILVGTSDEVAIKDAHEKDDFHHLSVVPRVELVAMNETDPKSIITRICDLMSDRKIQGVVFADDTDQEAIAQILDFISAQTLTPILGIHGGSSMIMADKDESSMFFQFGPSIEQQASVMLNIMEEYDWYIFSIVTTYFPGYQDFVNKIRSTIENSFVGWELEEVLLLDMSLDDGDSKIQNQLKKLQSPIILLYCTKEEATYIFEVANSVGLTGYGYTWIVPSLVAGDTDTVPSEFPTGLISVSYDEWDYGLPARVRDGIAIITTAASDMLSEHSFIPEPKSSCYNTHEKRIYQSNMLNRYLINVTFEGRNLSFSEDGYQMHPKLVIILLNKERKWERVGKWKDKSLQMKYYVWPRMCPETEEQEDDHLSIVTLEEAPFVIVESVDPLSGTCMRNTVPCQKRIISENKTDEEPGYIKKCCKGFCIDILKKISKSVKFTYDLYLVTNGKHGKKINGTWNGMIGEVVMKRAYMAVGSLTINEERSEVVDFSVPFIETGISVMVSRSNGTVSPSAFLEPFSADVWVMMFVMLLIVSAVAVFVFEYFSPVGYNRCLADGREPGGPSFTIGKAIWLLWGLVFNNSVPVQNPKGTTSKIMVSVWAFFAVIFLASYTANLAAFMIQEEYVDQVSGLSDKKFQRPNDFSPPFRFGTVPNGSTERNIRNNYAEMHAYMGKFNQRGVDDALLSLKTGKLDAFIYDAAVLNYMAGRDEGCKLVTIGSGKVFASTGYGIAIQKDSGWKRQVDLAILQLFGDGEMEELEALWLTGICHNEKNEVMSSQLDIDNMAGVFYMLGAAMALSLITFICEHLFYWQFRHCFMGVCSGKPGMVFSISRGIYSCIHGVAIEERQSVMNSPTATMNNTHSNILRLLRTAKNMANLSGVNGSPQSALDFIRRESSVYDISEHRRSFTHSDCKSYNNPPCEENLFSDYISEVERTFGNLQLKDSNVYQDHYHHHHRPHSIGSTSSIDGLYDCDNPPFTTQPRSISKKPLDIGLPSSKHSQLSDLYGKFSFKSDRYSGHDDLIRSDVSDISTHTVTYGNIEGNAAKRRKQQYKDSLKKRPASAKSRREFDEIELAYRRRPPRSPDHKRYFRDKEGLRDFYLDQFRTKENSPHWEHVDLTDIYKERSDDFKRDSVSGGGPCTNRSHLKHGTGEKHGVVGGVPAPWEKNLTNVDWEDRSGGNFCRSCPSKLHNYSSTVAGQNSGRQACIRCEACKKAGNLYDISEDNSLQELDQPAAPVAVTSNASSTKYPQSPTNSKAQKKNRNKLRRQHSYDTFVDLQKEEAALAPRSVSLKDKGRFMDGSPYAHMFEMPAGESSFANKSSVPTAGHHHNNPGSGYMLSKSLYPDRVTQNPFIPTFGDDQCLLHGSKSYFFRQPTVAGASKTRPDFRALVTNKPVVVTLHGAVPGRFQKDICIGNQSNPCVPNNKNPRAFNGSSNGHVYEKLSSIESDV

In the case of “5beta-pregnanolon-3alpha-yl 3-sulfate [3alfa,5beta-Pregnanolone sulfate]”, the “mean inhibition effect (Mean % change ± SD)” value is recorded as 67% in assay [1] (listed as 5beta-pregnanolon-3alpha-yl 3-sulfate) and 67.2±8.2% in assay [1] (listed as pregnanolone sulfate). For the same substance, the IC50 (usually the concentration at which inhibition is half-maximal) in assay [2] is 55 µM. The mean inhibition effect in assay [3] is recorded as 71.3±5.0%.
